The values below come from patent US20040156869A1, “2-substituted quinazolin-4-ylamine analogues” (Neurogen Corporation, priority 2002, published 2004).

For the test, the target named is human capsaicin receptor (VR1) (Homo sapiens, UniProt Q8NER1). The test is described as follows: Capsaicin receptor binding assay ([3H]RTX competition, VR1-transfected HEK293 membranes). The note with it: Table III; capsaicin receptor binding.
Sequence of human capsaicin receptor (VR1) (Q8NER1 whole entry): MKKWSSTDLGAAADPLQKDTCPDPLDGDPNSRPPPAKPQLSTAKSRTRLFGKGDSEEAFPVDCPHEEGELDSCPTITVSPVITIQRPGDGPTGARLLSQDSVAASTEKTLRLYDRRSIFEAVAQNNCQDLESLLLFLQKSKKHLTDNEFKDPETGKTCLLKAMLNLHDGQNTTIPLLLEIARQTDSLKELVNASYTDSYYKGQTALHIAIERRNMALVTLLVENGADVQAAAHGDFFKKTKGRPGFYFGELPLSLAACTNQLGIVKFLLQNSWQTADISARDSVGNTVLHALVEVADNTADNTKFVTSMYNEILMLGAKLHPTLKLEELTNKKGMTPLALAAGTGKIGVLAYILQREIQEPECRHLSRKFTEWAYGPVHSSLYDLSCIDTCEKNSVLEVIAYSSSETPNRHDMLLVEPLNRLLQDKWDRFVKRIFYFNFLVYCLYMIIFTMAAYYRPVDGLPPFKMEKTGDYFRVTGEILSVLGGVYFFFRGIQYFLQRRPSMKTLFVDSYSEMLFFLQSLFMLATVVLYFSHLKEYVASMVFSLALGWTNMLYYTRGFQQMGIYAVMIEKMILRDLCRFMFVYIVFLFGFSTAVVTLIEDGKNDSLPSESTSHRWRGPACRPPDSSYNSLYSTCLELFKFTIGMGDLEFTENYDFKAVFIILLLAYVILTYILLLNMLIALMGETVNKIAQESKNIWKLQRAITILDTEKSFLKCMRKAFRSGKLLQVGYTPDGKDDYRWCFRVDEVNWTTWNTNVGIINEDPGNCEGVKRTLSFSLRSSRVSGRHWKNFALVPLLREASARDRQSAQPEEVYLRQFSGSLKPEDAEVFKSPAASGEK

Regarding “[2-(2,6-Dimethyl- morpholin-4-ylmethyl)-7- (3-trifluoromethyl-pyridin- 2-yl)-pyrido[3,2- d]pyrimidin-4-yl]-(4- methanesulfonyl-phenyl)- amine (cis) [Compound 584]”, the Ki (usually the equilibrium dissociation constant of an inhibitor or competing ligand from its target) was below 1 µM.
